Tested on: NOMO1
Assay: cell viability relative to DMSO control; higher = less cytotoxic
Settings: 48 h
In short: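 Viability was expressed as a per-plate percentage of DMSO wells, with cell-free wells as background. Leukemia cells (NOMO1 or SEM at 500 cells/well, P12-Ichikawa at 1000 cells/well) were adapted for at least four passages in each medium and seeded in 1536-well plates (5 μl). Library compounds in DMSO were pin-dosed over an 11-point threefold series from 47 μM to 0.79 nM, and CellTiter-Glo One luminescence was read after 48 h at 37°C.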

C[C@@H]1COCCN1c1cc(C2([S@+](C)(=N)[O-])CC2)nc(-c2ccnc3[nH]ccc23)n1
cell viability [%]
Settings	HPLM + 10% dialyzed FBS	RPMI 5 mM glucose + 10% FBS	RPMI 5 mM glucose + 10% dialyzed FBS
0.000781 µM	94.9	102	97.6
0.00234 µM	116	114	107
0.00702 µM	119	114	114
0.0211 µM	121	119	119
0.0632 µM	127	115	122
0.19 µM	120	130	120
0.569 µM	91.9	114	116
1.71 µM	67.7	103	98.2
5.12 µM	34.5	59.4	39
15.4 µM	27.6	24.5	22
46.1 µM	24.6	17.9	22.3

— the supplement of paper PMC11451515
